Values of other authors in patent publication US20060160088A1, “Diagnostics and therapeutics for diseases associated with g protein-coupled receptor 40 (gpr40)” (Bayer Healthcare AG, priority 2003, published 2006).

Molecular target: GPR40 (Homo sapiens, UniProt O14842)
Details: activation of GPR40; most potent fatty acid tested

GPR40, sequence (O14842 whole entry): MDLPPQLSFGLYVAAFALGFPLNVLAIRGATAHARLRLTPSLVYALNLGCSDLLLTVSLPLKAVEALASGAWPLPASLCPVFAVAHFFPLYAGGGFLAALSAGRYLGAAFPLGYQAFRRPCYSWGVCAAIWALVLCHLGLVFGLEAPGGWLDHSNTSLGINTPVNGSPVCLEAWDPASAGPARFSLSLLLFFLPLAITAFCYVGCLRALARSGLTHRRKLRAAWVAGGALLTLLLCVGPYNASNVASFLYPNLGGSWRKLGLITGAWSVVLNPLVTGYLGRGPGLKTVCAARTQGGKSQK

## CCCCCCCCC#CCC#CCC#CCCCC(=O)O [Eicosatriynoic acid]
  pEC(50): 5.7
